Results from PubChem BioAssay (NCI).
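Method: 48-hour compound exposure of cells in 96-well plates, five concentrations, linear interpolation of endpoints. The concentration for full growth arrest is given as TGI.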 Where a SMILES comes first, the peptide text is derived from it. The star is where a group is joined. Cbz = O=C(OCc1ccccc1)*; Boc = CC(C)(C)OC(=O)*; OSu = O=C1CCC(=O)N1O*; Bn = c1ccc(C*)cc1

How the values were obtained:
Test in all cases: NCI-60 cell line screen, 48 h
[1] = test system: COLO 205 colon
[2] = test system: T-47D breast
[3] = test system: OVCAR-5 ovarian
[4] = test system: TK-10 renal
[5] = test system: A498 renal
[6] = test system: NCI/ADR-RES ovarian
[7] = test system: SF-295 CNS
[8] = test system: UO-31 renal
[9] = test system: SN12C renal
[10] = test system: IGROV1 ovarian
[11] = test system: HL-60(TB) leukemia
[12] = test system: HCC-2998 colon
[13] = test system: SF-539 CNS
[14] = test system: UACC-257 melanoma
[15] = test system: MDA-MB-231 breast
[16] = test system: UACC-62 melanoma

## CO/N=C(\C(=O)N(C)n1cnnc1)c1csc(NC(c2ccccc2)(c2ccccc2)c2ccccc2)n1
[1]
  TGI: > 10 µM
[2]
  TGI: > 10 µM
[3]
  TGI: > 10 µM
[4]
  TGI: > 10 µM
[5]
  TGI: > 10 µM
[6]
  TGI: > 10 µM
[7]
  TGI: > 10 µM
[8]
  TGI: > 10 µM
[9]
  TGI: > 10 µM
[10]
  TGI: > 10 µM
[11]
  TGI: > 10 µM
[12]
  TGI: > 10 µM
[13]
  TGI: > 10 µM
[14]
  TGI: > 10 µM

## O=c1oc2ccccc2c(O)c1/C=N/C(=S)NCCc1ccccc1
[1]
  TGI: > 100 µM
[2]
  TGI: > 100 µM
[3]
  TGI: > 100 µM
[4]
  TGI: > 100 µM
[15]
  TGI: > 100 µM
[6]
  TGI: > 100 µM
[16]
  TGI: 99.4 µM
[7]
  TGI: > 100 µM
[8]
  TGI: > 74.6 µM
[9]
  TGI: > 100 µM
[10]
  TGI: > 100 µM
[11]
  TGI: 5.38 µM
[12]
  TGI: > 100 µM
[13]
  TGI: > 71.1 µM
[14]
  TGI: > 100 µM

## CC(C)(C)OC(=O)NC(Cc1ccc(OCc2ccccc2)cc1)C(=O)NC(CCCCNC(=O)OCc1ccccc1)C(=O)ON1C(=O)CCC1=O (configuration not stated) (Boc-Tyr(Bn)-Lys(Cbz)-OSu; configuration not given here)
[1]
  TGI: 72.1 µM
[3]
  TGI: 76.7 µM
[4]
  TGI: > 100 µM
[5]
  TGI: > 100 µM
[15]
  TGI: 81.1 µM
[16]
  TGI: 33.2 µM
[8]
  TGI: 76.3 µM
[9]
  TGI: 32.9 µM
[10]
  TGI: 33.1 µM
[11]
  TGI: 49.3 µM
[12]
  TGI: 32 µM
[14]
  TGI: > 100 µM

## CC(=O)CSc1c(-c2ccccc2)c(=O)n(-c2ccccc2)c(=S)n1-c1ccccc1
[1]
  TGI: > 100 µM
[2]
  TGI: > 100 µM
[3]
  TGI: > 100 µM
[4]
  TGI: > 100 µM
[6]
  TGI: > 100 µM
[16]
  TGI: > 100 µM
[7]
  TGI: > 100 µM
[8]
  TGI: > 100 µM
[9]
  TGI: > 100 µM
[10]
  TGI: > 100 µM
[11]
  TGI: > 100 µM
[14]
  TGI: > 100 µM

## Cc1cc(S(=O)(=O)Nc2cc(N)[nH]n2)c(SCc2nc(N)nc(N(C)C)n2)cc1Cl
[1]
  TGI: > 10 µM
[2]
  TGI: > 10 µM
[3]
  TGI: > 10 µM
[4]
  TGI: > 10 µM
[5]
  TGI: > 10 µM
[6]
  TGI: > 10 µM
[7]
  TGI: > 10 µM
[8]
  TGI: > 10 µM
[9]
  TGI: > 10 µM
[10]
  TGI: > 10 µM
[11]
  TGI: > 10 µM
[12]
  TGI: > 10 µM
[13]
  TGI: > 10 µM
[14]
  TGI: > 10 µM

## CNC(=O)N(CCC#N)CCCN(C(=O)NC)c1ccccc1
[1]
  TGI: > 100 µM
[2]
  TGI: > 100 µM
[3]
  TGI: > 100 µM
[4]
  TGI: > 100 µM
[15]
  TGI: > 100 µM
[6]
  TGI: > 100 µM
[16]
  TGI: > 100 µM
[7]
  TGI: > 100 µM
[8]
  TGI: > 100 µM
[9]
  TGI: > 100 µM
[10]
  TGI: > 100 µM
[11]
  TGI: > 100 µM
[12]
  TGI: > 100 µM
[13]
  TGI: > 100 µM
[14]
  TGI: > 100 µM

## CCOC(=O)C(C)NC(=O)C(C)NC(=O)C(C)NC(=O)C(C)NC(=O)C(C)NC(=O)OCc1ccccc1 (configuration not stated)
[1]
  TGI: > 100 µM
[2]
  TGI: > 100 µM
[3]
  TGI: > 100 µM
[4]
  TGI: > 100 µM
[15]
  TGI: > 100 µM
[6]
  TGI: > 100 µM
[16]
  TGI: > 100 µM
[7]
  TGI: > 100 µM
[8]
  TGI: > 100 µM
[9]
  TGI: > 100 µM
[10]
  TGI: > 100 µM
[11]
  TGI: > 100 µM
[12]
  TGI: > 100 µM
[13]
  TGI: > 100 µM
[14]
  TGI: > 100 µM

## Cc1ncc2c(=O)c3c(oc2n1)c1ccccc1n3Cc1ccccc1
[1]
  TGI: > 100 µM
[2]
  TGI: > 100 µM
[3]
  TGI: > 100 µM
[4]
  TGI: > 100 µM
[15]
  TGI: > 100 µM
[6]
  TGI: > 100 µM
[16]
  TGI: 93.9 µM
[7]
  TGI: > 100 µM
[8]
  TGI: > 100 µM
[9]
  TGI: > 100 µM
[10]
  TGI: > 100 µM
[11]
  TGI: > 100 µM
[12]
  TGI: > 100 µM
[13]
  TGI: > 100 µM
[14]
  TGI: > 100 µM
